From patent US20250084097A1, “MACROCYCLIC AMIDE COMPOUNDS AND APPLICATION THEREOF” (Medshine Discovery Inc., priority 2021, published 2025) come the findings set out here.

This assay deals with Ba/F3-FL-EGFR (del19-E746-A750/T790M/C797S) phosphorylation. Kind of assay: Inhibition of EGFR phosphorylation in cells, Western Blot. The format is cell-based. The note with it: p-EGFR, 4 h incubation, read-out: Cell half-maximal inhibition concentration IC50 Ba/F3-FL-EGFR (del19-E746-A750/T790M/C797S). An excerpt: Autophosphorylation of EGFR can activate its intracellular kinase pathway. In this assay, EGFR phosphorylation was quantified in order to detect the inhibitory effect of compounds on Ba/F3-FL-EGFR(L858R/T790M/C797S) and Ba/F3-FL-EGFR (del19-E746-A750/T790M/C797S) phosphorylation.
The cells in the logarithmic growth phase were taken and counted with a cell counter. The cell viability rate was required to be >90%. Cells were inoculated into a sterile 6-well plate with 2×10^6 cells per well, replenished with 1640 complete medium to 1998 μL, and the 6-well plate was incubated in a constant temperature incubator at 37° C. and 5% CO2.
The 6-well plate was taken out, and the cells were normal under microscope. In an ultra-clean bench, 2 μL of each of the prepared gradient diluted 1000× stock solution was added to the 6-well plate inoculated with cells, and the 6-well plate was gently shaken to distribute the compounds evenly.
The 6-well plate was incubated statically in a constant temperature incubator at 37° C., 5% CO2 for 4 h;
After the cells were cultured statically for 4 hours, the culture medium was collected, and centrifuged at 8000 rpm for 3 minutes. The cells were collected in a 1.5 mL EP tube. The supernatant was discarded, and the total protein was extracted;
Cells from each group were collected into 1.5 ml EP tubes and a certain volume of Lysis Buffer (RIPA:protease/phosphatase inhibitor=100:1) was added (˜66 μL per 2×10^6 cells, depending on the cell amount). After adding Lysis Buffer, the EP tubes were placed on ice quickly and vortexed using a vortexer to fully lyse the cells. Be careful not to vortex for too long, and quickly place the sample tube on ice to lysis, shaking every 10 min for three times. At the end of the lysis time, the EP tubes were centrifuged at 12000 rpm for 10 min in a pre-cooled centrifuge at 4° C. After centrifugation, the supernatant was transferred to new 1.5 ml EP tubes which were labeled.
Using the BCA Protein Concentration Assay Kit, protein quantification of the sample lysis supernatant was performed according to the kit instructions. After the protein concentration was determined, the lysis supernatant with the lowest concentration was used as the reference, and the rest of the lysis supernatants were diluted to that concentration using Lysis Buffer in a volume calculated according to the BCA standard curve. To the diluted lysis supernatant, the corresponding volume of 5× loading Buffer was added. The diluted solution was heated in a metal bath at 95° C. for 10 min, then placed on ice to be cooled, and stored in a refrigerator at −20° C.
The glass plates used for making glue were cleaned, and two glass plates were aligned the bottoms, put into the bracket, and fixed with clips. The separation gel according to the 10% separation gel formula was prepared, mixed well and then added to the glass plate. The addition was stopped until the separation gel reached about ¾ of the glass plate and the glue was pressed with 75% ethanol. After 90 minutes, the separation gel was solidified. The 75% ethanol was poured out. Filter paper was used to absorb the remaining ethanol solution on the glass plate. A 5% stacking gel was prepared, mixed evenly and added to the glass plate. Then a spiking comb was inserted. After 60 minutes, the glue was made.
The gel plate was fixed in an electrophoresis tank, and the inner tank was filled with 1× electrophoresis solution, while in the outer tank the electrophoresis solution was over the metal wire. The spiking comb was removed, the protein samples of Ba/F3-FL-EGFR (L858R/T790M/C797S) and Ba/F3-FL-EGFR (del19-E746-A750/T790M/C797S) cells were sampled 25 μg, and Protein Ladder was then added. Turning on the power supply, electrophoresis with a constant voltage of 70 V lasted for 30 min, electrophoresis was continued at constant voltage 86 V for 1 h 20 min until the bromophenol blue indicator band reached the bottom and electrophoresis was stopped. […]
A general note: A western blot detects proteins with antibodies after separation by electrophoresis.
Take `Cc1cc2cc(n1)-c1cnn(C)c1OCCC[C@@H](C)CN1/C(=N/C2=O)Nc2ccc(N=S(C)(C)=O)cc21` [WX-006]: the IC50 came to 0.6 nM. As to `Cc1cc2cc(n1)-c1cnn(C)c1OC[C@H]1CC[C@H](C1)CN1/C(=N/C2=O)Nc2ccc(N=S(C)(C)=O)cc21` (single isomer, unassigned) [WX-027A], the IC50 was found to be 1.9 nM.

With `Cc1cc2cc(n1)-c1cnn(C)c1OCCC[C@@H](C)CN1/C(=N/C2=O)Nc2ccc(N=S3(=O)CCCC3)cc21` [WX-010 (trifluoroacetate)], the IC50 is 0.8 nM. Consider `Cc1cc2cc(n1)-c1cnn(C)c1OCCC[C@@H](C)CN1/C(=N/C2=O)Nc2ccc(N=S3(=O)CCOCC3)cc21` [WX-013], for which the IC50 was found to be 1.3 nM.
